From the supplement of paper PMC8671470

Assays:
Conditions in all cases: 72 h
MV4-11 [1] = assay: cell viability (% survival relative to DMSO control, bortezomib = 0%); higher = less cytotoxic
How it was run: (§1)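 Fifteen myeloid leukaemia cell lines were exposed to compounds at 1, 10, 100, 1000 or 10000 nM in 384-well plates for 72 h at 37 °C and 5% CO2. Viability was read by CellTiter-Glo luminescence and normalised, with vehicle as 100% and a 10 µM positive control as 0%. Values are percent survival averaged over duplicates.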

KCL-22 [2] = assay: as above
How it was run: as §1

ML-2 [3] = assay: as above
How it was run: as §1

NOMO-1 [4] = assay: as above
How it was run: as §1

Mono-Mac-6 [5] = assay: as above
How it was run: as §1

HL-60 [6] = assay: as above
How it was run: as §1

BV-173 [7] = assay: as above
How it was run: as §1

KU-812 [8] = assay: as above
How it was run: as §1

THP-1 [9] = assay: as above
How it was run: as §1

LAMA-84 [10] = assay: as above
How it was run: as §1

HEL [11] = assay: as above
How it was run: as §1

K-562 [12] = assay: as above
How it was run: as §1

MOLM-13 [13] = assay: as above
How it was run: as §1

KG-1 [14] = assay: as above
How it was run: as §1

SHI-1 [15] = assay: as above
How it was run: as §1

MV4-11 [16] = test system: MV4-11
How it was run: (§2)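 Fifteen myeloid leukaemia lines were incubated for 72 h at 37 °C with 5% CO2 across five tenfold doses from 1 to 10,000 nM, in duplicate. ATP luminescence was normalised to vehicle and to a positive control at 10 µM and fitted with a four-parameter log-logistic model. The IC50 came from these dose–response fits.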

KCL-22 [17] = test system: KCL-22
How it was run: as §2

ML-2 [18] = test system: ML-2
How it was run: as §2

NOMO-1 [19] = test system: NOMO-1
How it was run: as §2

Mono-Mac-6 [20] = test system: Mono-Mac-6
How it was run: as §2

HL-60 [21] = test system: HL-60
How it was run: as §2

BV-173 [22] = test system: BV-173
How it was run: as §2

KU-812 [23] = test system: KU-812
How it was run: as §2

THP-1 [24] = test system: THP-1
How it was run: as §2

LAMA-84 [25] = test system: LAMA-84
How it was run: as §2

HEL [26] = test system: HEL
How it was run: as §2

K-562 [27] = test system: K-562
How it was run: as §2

MOLM-13 [28] = test system: MOLM-13
How it was run: as §2

KG-1 [29] = test system: KG-1
How it was run: as §2

SHI-1 [30] = test system: SHI-1
How it was run: as §2

Cc1c(Cl)cccc1S(=O)(=O)Nc1nc(CC(=O)N2CCN(C)CC2)cs1 [BVT-2733]
cell viability [%]
Conditions	1 nM	10 nM	100 nM	1000 nM	10000 nM
BV-173 [7]	102	103	94.8	93.3	88.5
HEL [11]	106	82.9	96.3	108	101
HL-60 [6]	99.9	93.4	78.9	122	93.5
K-562 [12]	98	83.5	87.1	104	102
KCL-22 [2]	114	83.6	97.9	98.2	98.1
KG-1 [14]	102	92.8	94.2	98.2	105
KU-812 [8]	107	95.4	96.6	95.9	86.4
LAMA-84 [10]	101	93.4	96.9	105	99.9
ML-2 [3]	108	91.1	92.6	108	99.6
MOLM-13 [13]	99.7	89.1	97.8	110	96.4
MV4-11 [1]	107	95.1	88.3	108	112
Mono-Mac-6 [5]	107	88	107	114	99.6
NOMO-1 [4]	105	97.6	99.1	99.1	95.4
SHI-1 [15]	110	101	105	111	104
THP-1 [9]	107	91	100	97	92.9

Conditions	IC50 (cell viability) [µM]
BV-173 [22]	> 10
HEL [26]	> 10
HL-60 [21]	> 10
K-562 [27]	> 10
KCL-22 [17]	> 10
KG-1 [29]	> 10
KU-812 [23]	> 10
LAMA-84 [25]	> 10
ML-2 [18]	> 10
MOLM-13 [28]	> 10
MV4-11 [16]	> 10
Mono-Mac-6 [20]	> 10
NOMO-1 [19]	> 10
SHI-1 [30]	> 10
THP-1 [24]	> 10

CCc1oc2ccccc2c1C(=O)c1cc(Br)c(O)c(Br)c1 [Benzbromarone]
cell viability [%]
Conditions	1 nM	10 nM	100 nM	1000 nM	10000 nM
BV-173 [7]	106	94.1	117	95.9	127
HEL [11]	92.3	101	101	89.8	122
HL-60 [6]	88.5	88.1	136	94.1	104
K-562 [12]	117	94.6	103	97.7	103
KCL-22 [2]	108	90.7	91.5	90.2	124
KG-1 [14]	95.7	97.7	102	94.1	102
KU-812 [8]	100	95.2	97.9	87.4	104
LAMA-84 [10]	103	98.7	96.3	96.1	107
ML-2 [3]	99.6	96.6	109	93.4	109
MOLM-13 [13]	101	101	91.3	90.8	136
MV4-11 [1]	107	100	97	91.2	118
Mono-Mac-6 [5]	102	95.3	106	102	126
NOMO-1 [4]	95.1	103	94.8	93.9	109
SHI-1 [15]	104	86	104	103	117
THP-1 [9]	105	95.7	112	101	86.3

Conditions	IC50 (cell viability) [µM]
BV-173 [22]	> 10
HEL [26]	> 10
HL-60 [21]	> 10
K-562 [27]	> 10
KCL-22 [17]	> 10
KG-1 [29]	> 10
KU-812 [23]	> 10
LAMA-84 [25]	> 10
ML-2 [18]	> 10
MOLM-13 [28]	> 10
MV4-11 [16]	> 10
Mono-Mac-6 [20]	> 10
NOMO-1 [19]	> 10
SHI-1 [30]	> 10
THP-1 [24]	> 10

CCOC(=O)c1sc(NC(=O)c2ccco2)c(SC#N)c1C [CBR-5884]
cell viability [%]
Conditions	1 nM	10 nM	100 nM	1000 nM	10000 nM
BV-173 [7]	100	111	87.5	105	80
HEL [11]	102	102	98.2	104	86.5
HL-60 [6]	103	102	89.5	92.7	59.4
K-562 [12]	89.9	105	92.7	88.9	83.7
KCL-22 [2]	110	85.5	107	105	94.6
KG-1 [14]	90.5	83.3	103	94.3	74.9
KU-812 [8]	93.5	101	109	94.8	88.3
LAMA-84 [10]	89.2	102	103	102	99.1
ML-2 [3]	94.5	97.2	104	99.3	60.5
MOLM-13 [13]	97.2	82.9	112	97.3	81.4
MV4-11 [1]	79.9	96.3	116	88.3	51.1
Mono-Mac-6 [5]	94.9	111	102	103	91.1
NOMO-1 [4]	99.8	104	97.4	100	94.5
SHI-1 [15]	90.4	87.1	102	103	81.3
THP-1 [9]	102	97.1	98.1	94.4	100

Conditions	IC50 (cell viability) [µM]
BV-173 [22]	> 10
HEL [26]	> 10
HL-60 [21]	> 10
K-562 [27]	> 10
KCL-22 [17]	> 10
KG-1 [29]	> 10
KU-812 [23]	> 10
LAMA-84 [25]	> 10
ML-2 [18]	> 10
MOLM-13 [28]	> 10
MV4-11 [16]	7.25
Mono-Mac-6 [20]	> 10
NOMO-1 [19]	> 10
SHI-1 [30]	> 10
THP-1 [24]	> 10

O=C(/C=C/c1ccc(O)c(O)c1)OCCc1ccccc1 [Caffeic acid phenethyl ester]
cell viability [%]
Conditions	1 nM	10 nM	100 nM	1000 nM	10000 nM
BV-173 [7]	93.2	102	94.3	31.9	1.21
HEL [11]	92.8	96.8	84.1	77.9	24.8
HL-60 [6]	96.3	111	92.2	56.7	16.2
K-562 [12]	90.1	94.8	97.8	95.2	48.5
KCL-22 [2]	87.2	108	93.3	71.9	35.8
KG-1 [14]	97.2	102	94.7	61	23.5
KU-812 [8]	96.1	93	93.2	33.2	7.74
LAMA-84 [10]	105	104	98.1	89.3	36.3
ML-2 [3]	97.8	106	104	61.4	2.29
MOLM-13 [13]	90.7	94.9	81.9	97.2	50.8
MV4-11 [1]	94.5	90.6	111	65	0.624
Mono-Mac-6 [5]	95	92.7	102	79.1	39.4
NOMO-1 [4]	93.6	96.3	86.1	80.8	85.5
SHI-1 [15]	95.7	99.5	103	86.1	69
THP-1 [9]	92.7	100	91.9	86.3	51

Conditions	IC50 (cell viability) [µM]
BV-173 [22]	0.664
HEL [26]	4.18
HL-60 [21]	1.07
K-562 [27]	> 10
KCL-22 [17]	2.21
KG-1 [29]	1.1
KU-812 [23]	0.649
LAMA-84 [25]	6.17
ML-2 [18]	1.26
MOLM-13 [28]	> 10
MV4-11 [16]	1.39
Mono-Mac-6 [20]	3.47
NOMO-1 [19]	> 10
SHI-1 [30]	> 10
THP-1 [24]	6.98

CCCCCOC(=O)Nc1nc(=O)n([C@@H]2O[C@H](C)[C@@H](O)[C@H]2O)cc1F [Capecitabine]
cell viability [%]
Conditions	1 nM	10 nM	100 nM	1000 nM	10000 nM
BV-173 [7]	100	93.8	102	97.5	88.3
HEL [11]	86.1	87	106	106	87.6
HL-60 [6]	104	85.2	109	101	72
K-562 [12]	97.4	92.5	82.9	99.9	93.3
KCL-22 [2]	118	85.4	66.3	109	85.2
KG-1 [14]	98.1	91.1	103	97.5	86.8
KU-812 [8]	90.7	93.3	104	102	89.9
LAMA-84 [10]	91.9	94.5	87.6	99	99.9
ML-2 [3]	107	95.5	86.1	94.1	98.3
MOLM-13 [13]	87.7	104	121	113	70.8
MV4-11 [1]	98.2	90.8	110	103	89.7
Mono-Mac-6 [5]	100	90.2	113	95.6	93.1
NOMO-1 [4]	99.5	100	94.9	93	99.9
SHI-1 [15]	102	99.1	97.1	107	96.7
THP-1 [9]	102	100	94.1	105	94.6

Conditions	IC50 (cell viability) [µM]
BV-173 [22]	> 10
HEL [26]	> 10
HL-60 [21]	> 10
K-562 [27]	> 10
KCL-22 [17]	> 10
KG-1 [29]	> 10
KU-812 [23]	> 10
LAMA-84 [25]	> 10
ML-2 [18]	> 10
MOLM-13 [28]	> 10
MV4-11 [16]	> 10
Mono-Mac-6 [20]	> 10
NOMO-1 [19]	> 10
SHI-1 [30]	> 10
THP-1 [24]	> 10
